The results in this text go back to patent US20110263608A1, “16-KETO ASPERGILLIMIDES AND HARMFUL ORGANISM CONTROL AGENT COMPRISING THE SAME AS ACTIVE INGREDIENT” (Meiji Seika Pharma Co., Ltd., priority 2008, published 2011).

Holding throughout (assay type): in vivo
Data set [1] has as its system Aphis gossypii. As to the kind of experiment: Insecticidal effect against Aphis gossypii (cucumber leaf disk). As to conditions: foliar, 72 h, read-out: insecticidal activity (death rate). How it is done: A leaf disk having a diameter of 2.0 cm was cut out from a cucumber in pot culture, and test solutions adjusted to a 200 ppm concentration (50% aqueous acetone solution; 0.05% Tween 20 added) were applied to the leaf disk. The leaf disk was then air dried, and first instar larvae were released and were then allowed to stand in a humidistat chamber (light period 16 hr—dark period 8 hr) (25° C.). […] The test was duplicated.
(§1) Death rate (%)={number of dead larvae/(number of survived larvae+number of dead larvae)}×100

The subject of data set [2] is Haemaphysalis longicornis. As to the kind of experiment: Tickcidal effect against Haemaphysalis longicornis (dry film in glass vial). As to conditions: 24 h, read-out: Death rate after one day. How it is done: Acetone solution (30 μl) of 200 ppm of compounds 1 to 9 and 20 ppm of compounds A and B was placed in 4 mL-volume glass vials. The vials were placed on a shaker, and a dry film of the compound was formed on the inner wall of the vials. The vials were dried for 24 hr or longer. Larva ticks of Haemaphysalis longicornis (10 heads) were released in the vials, and the vials were lidded.
as §1

Data set [3] relates to Laodelphax striatellus. As to the kind of experiment: Insecticidal effect against Laodelphax striatellus (root absorption, wheat seedlings). To be noted: 72 h, read-out: insecticidal activity (death rate). Here is the method:
A test solution (200 μl) adjusted to a 100 ppm concentration (10% aqueous acetone solution) was applied to the root of wheat seedlings in water culture. After the absorption of the test solution from the root for 3 days, 10 second instar larvae of Laodelphax striatellus were released, and the wheat seedlings were then allowed to stand in a humidistat chamber (light period 16 hr—dark period 8 hr) (25° C.). […] The test was duplicated.
as §1

Data set [4] concerns Frankliniella occidentalis. As to the kind of experiment: Insecticidal effect against Frankliniella occidentalis (kidney bean leaf disk). To be noted: 100 ppm, first instar larvae, six days after release. How it is done: A leaf disk having a diameter of 2.8 cm was cut out from kidney bean in pot culture, and a test solutions adjusted to a 100 ppm concentration (50% aqueous acetone solution; 0.05% Tween 20 added) were applied to the leaf disk. The leaf disk was then air dried, and first instar larvae were released and were then allowed to stand in a humidistat chamber (light period 16 hr—dark period 8 hr) (25° C.). […] The test was duplicated. Death rate (%)={number of dead larvae/(number of survived larvae+number of dead larvae)}×100

Data set [5] in a line: Single oral administration acute toxicity against rat. To be noted: female, Jcl: Wistar, in vivo, 2000 mg/kg, single oral administration. How it is done: (§2) Compound A was suspended at a concentration of 100 mg/mL using 0.5% methylcellulose. The test solution was forcibly orally administered to rats (Jcl: Wistar, female, 8 week olds) with a tube and a disposable syringe. The dose was 2000 mg/kg. […]

The test system of data set [6] is rats (Jcl: Wistar, female). The data set is described as above. As to conditions: single oral dose 2000 mg/kg, 15 days. Here is the method: as §2
Data set [7] has as its system Ctenocephalides felis. As to the kind of experiment: Fleacidal effect against Ctenocephalides felis (treated filter paper). To be noted: 6.3 ppm acetone solution (200 μL) on filter paper, adults. Here is the method: Acetone solution (200 μL) of 6.3 ppm of compound A was dropped on a filter paper having a diameter of 4.0 cm, and the filter paper was air-dried at room temperature to evaporate acetone. The chemical compound-treated filter paper was tightly fitted into a lid (diameter: 3.7 cm) for a 200-mL vial. About 25 adults of Ctenocephalides felis one to 3 days after adult eclosion were released in the 200 mL-volume vial, and the vial was then sealed by the vial lid with the chemical compound-treated filter paper fitted thereinto. The vial was inverted so that Ctenocephalides felis came into contact with the filter paper and, in this state, was left to stand. […] The test was triplicated.
as §1

Data set [8] relates to Haemaphysalis longicornis. As to the kind of experiment: Tickcidal effect against Haemaphysalis longicornis on body surface of mouse. As to conditions: larvae.
From the text: Skin hair on the back of mice (ICR, male, 5 week olds) was clipped in a diameter of about 2 cm, and a 15-mL polystyrene conical tube cut to have a height of about 1.5 cm was bonded to the body surface of the mice with an instant adhesive.
as §1

The mark [9] stands for this setting: 200 ppm, first instar larvae, three days after release.
The mark [10] stands for this setting: 200 ppm acetone solution (30 μl), dry film, larva ticks, 25 C.
Where [11] appears, read: 100 ppm (200 μl) to root, second instar larvae, three days after release.

Molecules are shown by their SMILES. Where two headings read alike, the source gives them in different places.

For orientation: LD50 means the dose expected to kill half of the subjects tested. High values mean a less toxic substance, low ones a more toxic substance.

As to `C[C@H]1CC(=O)N2C[C@]34C[C@]5(C[C@@H](O)N(C)C5=O)C(C)(C)[C@H]3C[C@]12C(=O)N4C` [Compound 1], in data set [1], the pest or weed control at 200 ppm is at least 80%. The pest or weed control at 200 µg/mL in data set [2] worked out at 80%. Moreover, the pest or weed control at 100 ppm in data set [3] is 100%.
With `CC(=O)O[C@@H]1C[C@]2(C[C@@]34CN5C(=O)C[C@H](C)[C@]5(C[C@@H]3C2(C)C)C(=O)N4C)C(=O)N1C` [Compound 2], the pest or weed control at 200 ppm in data set [1] (setting [9]) was at least 80%. Also, the pest or weed control at 200 µg/mL in data set [2] (setting [10]) came to 100%. Further, in data set [3] (setting [11]), the pest or weed control at 100 ppm is 100%.
In the case of `C[C@H]1CC(=O)N2C[C@]34C[C@]5(C=CN(C)C5=O)C(C)(C)[C@@H]3C[C@]12C(=O)N4C` [Compound 3], the pest or weed control at 200 ppm in data set [1] is at least 80%. In data set [2], the pest or weed control at 200 µg/mL stood at 80%. Moreover, in data set [3], the pest or weed control at 100 ppm was 100%.
`C[C@H]1CC(=O)N2C[C@]34C[C@]5(CCN(C)C5=O)C(C)(C)[C@@H]3C[C@]12C(=O)N4C` [Compound 4]: in data set [1], the pest or weed control at 200 ppm is at least 80%. Further, the pest or weed control at 200 µg/mL in data set [2] amounted to 100%. For the same compound, in data set [3], the pest or weed control at 100 ppm was 100%.
Take `C[C@H]1CC(=O)N2C[C@@]34C[C@@]5(C(=O)N(C)C=C5C5C[C@]6(C[C@]78CN9C(=O)C[C@H](C)[C@@]9(C[C@H]7C6(C)C)C(=O)N8C)C(=O)N5C)C(C)(C)[C@@H]3C[C@]12C(=O)N4C` (some centres unmarked) [Compound 5]: the pest or weed control at 200 ppm in data set [1] was at least 80%.
As for `C[C@H]1CC(=O)N2C[C@]34C[C@@]5(C(=O)N(C)C6OC65)C(C)(C)[C@@H]3C[C@]12C(=O)N4C` (some centres unmarked) [Compound 6], the pest or weed control at 200 ppm in data set [1] is at least 80%. In addition, the pest or weed control at 200 µg/mL in data set [2] is 100%. Moreover, the pest or weed control at 100 ppm in data set [3] was determined as 100%.
For the compound `C[C@H]1CC(=O)N2C[C@]34C[C@@]5(C(=O)N(C)C(=O)C5O)C(C)(C)[C@@H]3C[C@]12C(=O)N4C` (some centres unmarked) [Compound 7], in data set [1] (setting [9]), the pest or weed control at 200 ppm is at least 80%. The pest or weed control at 200 µg/mL in data set [2] (setting [10]) is 100%. The pest or weed control at 100 ppm in data set [3] (setting [11]) was determined as 100%.
With `COC1C[C@]2(C[C@@]34CN5C(=O)C[C@H](C)[C@]5(C[C@@H]3C2(C)C)C(=O)N4C)C(=O)N1C` (some centres unmarked) [Compound 8], the “insecticidal activity (death rate)” value in data set [4] is recorded as “not less than 80%”. Further, the pest or weed control at 200 ppm in data set [1] (setting [9]) was at least 80%. Besides, the pest or weed control at 200 µg/mL in data set [2] (setting [10]) came out at 100%. In addition, the pest or weed control at 100 ppm in data set [3] (setting [11]) stood at 100%.
Regarding `C[C@H]1CC(=O)N2C[C@]34C[C@]5(CC(OCc6ccccc6)N(C)C5=O)C(C)(C)[C@@H]3C[C@]12C(=O)N4C` (some centres unmarked) [Compound 9], the pest or weed control at 200 ppm in data set [1] (setting [9]) was at least 80%. Moreover, in data set [2] (setting [10]), the pest or weed control at 200 µg/mL was found to be 100%. The pest or weed control at 100 ppm in data set [3] (setting [11]) stood at 100%.
Turning to `C[C@H]1CC(=O)N2C[C@]34C[C@@]5(C(=O)N(C)C(=O)C5Cc5ccccc5)C(C)(C)[C@@H]3C[C@]12C(=O)N4C` (some centres unmarked) [Compound 10], the pest or weed control at 200 ppm in data set [1] (setting [9]) was at least 80%.
As for `C[C@H]1CC(=O)N2C[C@]34C[C@]5(CC(=O)N(C)C5=O)C(C)(C)[C@@H]3C[C@]12C(=O)N4C` [Compound A, 16-keto aspergillimide], the median lethal dose (LD50) at 15 days in data set [5] is at least 2000 mg/kg. Also, the “Cumulative number of dead rats 15 days after administration (number of death/total number of rats tested)” value in data set [6] was 0/3. In addition, the pest or weed control at 20 µg/mL in data set [2] was 100%. Besides, the “Death rate after three days” value came to 73% in data set [7], 60% in data set [8] (dose 2 μg/2 cm^2 on mouse body surface), 93% in data set [8] (dose 6 μg/2 cm^2 on mouse body surface) and 100% in data set [8] (dose 10 μg/2 cm^2 on mouse body surface).
Turning to `C[C@H]1CCN2C[C@]34C[C@]5(CC(=O)N(C)C5=O)C(C)(C)[C@@H]3C[C@]12C(=O)N4C` [Compound B, asperparaline A], the pest or weed control at 20 µg/mL in data set [2] (20 ppm acetone solution (30 μl), dry film, larva ticks, 25 C) came out at 100%.
